The results in this text go back to patent US20200087326A1, “DEEP RED FLUORESCENT PROBE” (The University of Tokyo, priority 2016, published 2020).

The nature of series [1]: Absorption and fluorescence spectra (photophysical properties) of compounds A-C in solutions of various Ca^2+ concentrations. The note with it: 1 μM compound, pH 7.2 MOPS. The format is physicochemical. The procedure: To investigate whether the synthesized compounds A, B, and C can function as Ca^2+ probes, the absorption and fluorescence spectra were measured in solutions of various Ca^2+ concentrations. FIG. 7 represents the absorption spectra (left), emission spectra (center), and fluorescence spectra (right) of 1 μM of compounds A, B, and C in the presence of various concentrations (0, 0.017, 0.038, 0.065, 0.100, 0.150, 0.225, 0.351, […]) of free Ca^2+ in pH 7.2 30 mM 3-(N-morpholino)propanesulfonic acid (MOPS) containing […] and […] (EGTA). The excitation wavelengths were 646 nm (A), 648 nm (B), and 635 nm (C).

Series [2] is described as follows: Evaluation of compounds A-C as Ca^2+ probes (fluorescence intensity vs free Ca^2+). The format is binding. The procedure: To investigate whether the synthesized compounds A, B, and C can function as Ca^2+ probes, the absorption and fluorescence spectra were measured in solutions of various Ca^2+ concentrations. FIG. 7 represents the absorption spectra (left), emission spectra (center), and fluorescence spectra (right) of 1 μM of compounds A, B, and C in the presence of various concentrations ([…])propanesulfonic acid (MOPS) containing […] and […] (EGTA). The excitation wavelengths were 646 nm (A), 648 nm (B), and 635 nm (C).

[3] abbreviates: In 0 μM free [Ca^2+] buffer (absence of Ca^2+).
The mark [4] stands for this setting: 39 μM vs 0 μM free [Ca^2+] buffer.

Regarding `Cc1ccc(N(CC(=O)O)CC(=O)O)c(OCCOc2cc(NC(=O)C/[N+](C)=C3/C=CC4=C(c5ccccc5C(=O)[O-])c5ccc(N(C)C)cc5[Si](C)(C)C4=C3)ccc2N(CC(=O)O)CC(=O)O)c1` [Compound C], the figures for the Φfl in series [1] (setting [3]) and in series [1] (In 39 μM free [Ca^2+] buffer) were 0.01 and 0.26, respectively. In addition, the figures for the λabs in series [1] (In 0 μM free [Ca^2+] buffer) and in series [1] (In 39 μM free [Ca^2+] buffer) were 637 nm and 636 nm, respectively. In addition, the results for the λfl in series [1] (In 0 μM free [Ca^2+] buffer) and in series [1] (In 39 μM free [Ca^2+] buffer) were 664 nm and 661 nm, respectively. The “Activation Ratio” value was “×26” in series [2] (setting [4]) and 26 fold in series [2] (with vs without Ca^2+).
For `Cc1ccc(N(CC(=O)O)CC(=O)O)c(OCCOc2cc(NC(=O)c3ccc(C4=C5C=CC(=[N+](C)C)C=C5[Si](C)(C)c5cc(N(C)C)ccc54)c(C(=O)O)c3)ccc2N(CC(=O)O)CC(=O)O)c1` [Compound A], the Φfl in series [1] (setting [3]) came to 0.10; in series [1] (In 39 μM free [Ca^2+] buffer) it was 0.25. Also, the λabs in series [1] (In 0 μM free [Ca^2+] buffer) and in series [1] (In 39 μM free [Ca^2+] buffer) was 646 nm in each case. For the same compound, the λfl is 673 nm in series [1] (In 0 μM free [Ca^2+] buffer) and 674 nm in series [1] (In 39 μM free [Ca^2+] buffer). Further, the “Activation Ratio” value in series [2] (setting [4]) is listed as “×2.5”; in series [2] (with vs without Ca^2+) it was 2.5 fold.
For the compound `Cc1ccc(N(CC(=O)O)CC(=O)O)c(OCCOc2cc(NC(=O)c3ccc(C(=O)O)c(C4=C5C=CC(=[N+](C)C)C=C5[Si](C)(C)c5cc(N(C)C)ccc54)c3)ccc2N(CC(=O)O)CC(=O)O)c1` [Compound B], the figures for the Φfl in series [1] (setting [3]) and in series [1] (In 39 μM free [Ca^2+] buffer) were 0.04 and 0.29, respectively. For the same compound, the λabs in series [1] (In 0 μM free [Ca^2+] buffer) came to 648 nm; in series [1] (In 39 μM free [Ca^2+] buffer), 647 nm. Also, the λfl came out at 671 nm in series [1] (In 0 μM free [Ca^2+] buffer) and 672 nm in series [1] (In 39 μM free [Ca^2+] buffer). For the same compound, the “Activation Ratio” value in series [2] (setting [4]) was “×7.3”.
